The subject of data set [1] is Mycobacterium tuberculosis (Mtb). Particulars: compared with natural tunicamycin; cited from earlier work.
The subject of data set [2] is Mycobacterium avium subsp. paratuberculosis (MAP) strain K-10. As to the kind of experiment: Antibiotic disc assay on agar plates, MAP strain K-10. Particulars: antibiotic discs on the plate for 13 days, FIG. 15C.
The test system of data set [3] is cultured mammalian cell lines (HEK293, HepG2, Raji cells). Particulars: cell line not given; cited from earlier work.
The subject of data set [4] is Mycobacterium smegmatis. As to the kind of experiment: Microtiter plate bioassay, mycobacterial growth inhibition (MIC). The format is cell-based. As to conditions: M. smegmatis grown in TYG for 6 days at 37° C., FIG. 16. The procedure:
(§1) In each plate, left two columns are treated with DMSO, center two columns are treated with tunicamycin; right two panels are treated with TunR2. The concentration in μg/mL is indicated on the right. Arrows show the concentration at which there is mycobacterial growth inhibition (MIC), or biofilm formation is blocked (MBFC).
The inventors have shown that tunicamycins (including the modified TunR1, TunR2, and OAT-type tunicamycins) have potent antimycobacterial activity (for example, MIC 0.5 μg·mL^−1 for TunR2 against M. smegmatis, as shown in FIG. 16.
(§2) Tunicamycins are known to inhibit the biosynthesis of bacterial cell wall, for example by blocking the peptidoglycan and teichoic layers. The Mycobacterium genus is characterized by unusual and complex cell walls composed of three distinct layers, peptidoglycan (PG), arabinogalactan (AG) and mycolic acids (MA), which are well characterized targets for antimycobacterial drugs (K A Abrahams & G S Besra, 2018, “Mycobacterial cell wall biosynthesis: a multifaceted antibiotic target,” Parasitology 145: 116-133). The MA and AG are also components of mycobacterial biofilms, an extracellular matrix with various pathogenic functions.

Data set [5] deals with Mycobacterium smegmatis biofilm. In words: Microtiter plate bioassay, biofilm formation (MBFC). Particulars: M. smegmatis grown in TYG for 6 days at 37° C., FIG. 16. It is filed as cell-based. On the procedure: as §1, §2

Results on 6 compounds are retold here after patent US12245589B2, “Omega-alicyclic tunicamycins and analogs” (priority 2022, dated 2025).

“Also recorded” adds a separate entry of the source. Some results are limits rather than exact numbers.

Turning to `CCCCCCCCC(=O)N[C@H]1[C@H](O[C@H]2O[C@H](CO)[C@@H](O)[C@H](O)[C@H]2NC(=O)CCCCCCCC)O[C@H](C[C@@H](O)[C@H]2O[C@@H](n3ccc(=O)[nH]c3=O)[C@H](O)[C@@H]2O)[C@H](O)[C@@H]1O` [Tun-9,9], the “potency relative to natural tunicamycin against Mtb” value in data set [1] is 5 times.

Consider `CC1(C)S[C@@H]2[C@H](NC(=O)C(C(=O)O)c3ccccc3)C(=O)N2[C@H]1C(=O)O` (stereo partly shown) [carbenicillin], for which the figures for the “activity on MAP strain K-10” value in data set [2] and in data set [2] (listed as Carbenicillin) were “resistant” and “low inhibitions at high concentrations”, respectively. Regarding `CO/N=C(\C(=O)N[C@@H]1C(=O)N2C(C(=O)[O-])=C(C[n+]3cccc4c3CCCC4)CS[C@H]12)c1csc(N)n1` [cefquinome], the “activity on MAP strain K-10” value in data set [2] is given as “resistant; also recorded: low inhibitions at high concentrations”. On to `CCCCCCCCC1=C(CCCCCCCC(=O)O)C1` [sterulic acid], for which, in data set [2], the “activity on MAP strain K-10” value is on record as “resistant”. On the same count and under the same terms, next, `CC(C)CCOc1ccc(NC(=S)Nc2ccc(OCCC(C)C)cc2)cc1` [thiocarlide]: “resistant”. Regarding tunicamycin, the LD50 in data set [3] is greater than 400 µg/mL. Further, the “MIC (mycobacterial growth inhibition)” value in data set [4] was 2 µg/mL. Also, the “Minimal Biofilm Formation Concentration, MBFC” value in data set [5] was determined as 1 µg/mL. The “activity on MAP strain K-10” value in data set [2] is “perform well”.
